From the NIST ThermoML archive (doi:10.1016/j.fluid.2018.10.006)

Details: Fluid (supercritical or subcritical phases), Coaxial cylinder method

CCCCCC [hexane]
Details	thermal conductivity [W/m/K]
508.92 K, 3088 kPa	0.1061
508.92 K, 3089 kPa	0.1087
508.92 K, 3090 kPa	0.1096
508.92 K, 3091 kPa	0.11
508.92 K, 3092 kPa	0.1093
508.92 K, 3093 kPa	0.1071
508.92 K, 3094 kPa	0.1049
508.92 K, 3095 kPa	0.1028
508.92 K, 3096 kPa	0.101
508.92 K, 3097 kPa	0.09872
508.92 K, 3098 kPa	0.0967
508.92 K, 3099 kPa	0.0947
508.92 K, 3100 kPa	0.09356
508.92 K, 3101 kPa	0.09223
508.92 K, 3102 kPa	0.09134
508.92 K, 3103 kPa	0.09045
508.92 K, 3104 kPa	0.08916
508.92 K, 3105 kPa	0.08837
508.92 K, 3106 kPa	0.08751
508.92 K, 3107 kPa	0.08708
508.92 K, 3108 kPa	0.08666
508.92 K, 3109 kPa	0.08604
508.92 K, 3110 kPa	0.08542
508.92 K, 3111 kPa	0.08502
508.92 K, 3112 kPa	0.08462
508.92 K, 3113 kPa	0.08398
508.92 K, 3114 kPa	0.08318
508.92 K, 3115 kPa	0.08318
508.92 K, 3120 kPa	0.08124
508.92 K, 3125 kPa	0.07976
508.92 K, 3130 kPa	0.07868
508.92 K, 3135 kPa	0.07761
508.92 K, 3140 kPa	0.07664
508.92 K, 3145 kPa	0.07595
508.92 K, 3150 kPa	0.07561
508.92 K, 3155 kPa	0.07461
508.92 K, 3159 kPa	0.07461
508.92 K, 3160 kPa	0.07429
508.92 K, 3165 kPa	0.07396
508.92 K, 3170 kPa	0.07364
508.92 K, 3175 kPa	0.07309
508.92 K, 3180 kPa	0.07309
508.92 K, 3185 kPa	0.07278
508.92 K, 3190 kPa	0.07248
508.92 K, 3195 kPa	0.07217
508.92 K, 3200 kPa	0.07227
508.92 K, 3205 kPa	0.07189
508.92 K, 3215 kPa	0.07157
508.92 K, 3220 kPa	0.07128
508.92 K, 3225 kPa	0.07128
508.92 K, 3230 kPa	0.07107
508.92 K, 3235 kPa	0.07101
508.92 K, 3240 kPa	0.07092
508.92 K, 3245 kPa	0.07081
508.92 K, 3250 kPa	0.07098
508.92 K, 3255 kPa	0.07098
508.92 K, 3260 kPa	0.07098
508.92 K, 3265 kPa	0.07069
508.92 K, 3270 kPa	0.07069
508.92 K, 3275 kPa	0.07069
508.92 K, 3280 kPa	0.07069
508.92 K, 3285 kPa	0.07069
508.92 K, 3290 kPa	0.0704
508.92 K, 3295 kPa	0.0704
508.92 K, 3300 kPa	0.0704
508.92 K, 3310 kPa	0.0704
508.92 K, 3320 kPa	0.07069
508.92 K, 3330 kPa	0.07069
508.92 K, 3340 kPa	0.07069
508.92 K, 3350 kPa	0.0707
508.92 K, 3355 kPa	0.07041
508.92 K, 3360 kPa	0.07041
508.92 K, 3365 kPa	0.07041
508.92 K, 3370 kPa	0.07041
508.92 K, 3375 kPa	0.07041
508.92 K, 3380 kPa	0.07041
508.92 K, 3385 kPa	0.07041
508.92 K, 3390 kPa	0.07013
508.92 K, 3395 kPa	0.07013
508.92 K, 3500 kPa	0.07013
508.92 K, 3535 kPa	0.07013
508.92 K, 3540 kPa	0.07013
508.92 K, 3545 kPa	0.06984
508.92 K, 3550 kPa	0.07041
508.92 K, 3555 kPa	0.07041
508.92 K, 3560 kPa	0.07041
508.92 K, 3565 kPa	0.07041
508.92 K, 3570 kPa	0.07041
508.92 K, 3605 kPa	0.06984
508.92 K, 3670 kPa	0.06984
508.92 K, 3690 kPa	0.06984
508.92 K, 3700 kPa	0.0707
508.92 K, 3900 kPa	0.0707
508.92 K, 4000 kPa	0.0707
508.92 K, 4300 kPa	0.07129
508.92 K, 4400 kPa	0.07159
508.92 K, 4500 kPa	0.07188
508.92 K, 4600 kPa	0.07219
508.92 K, 4700 kPa	0.07219
508.92 K, 4800 kPa	0.0725
508.92 K, 4900 kPa	0.0725
508.92 K, 5000 kPa	0.0728
508.92 K, 5100 kPa	0.0728
508.92 K, 5200 kPa	0.07342
508.92 K, 5300 kPa	0.07342
508.92 K, 5400 kPa	0.07342
508.92 K, 5500 kPa	0.07373
508.92 K, 5600 kPa	0.07437
508.92 K, 5800 kPa	0.07437
508.92 K, 6000 kPa	0.07437
508.92 K, 6100 kPa	0.07437
508.92 K, 6200 kPa	0.07469
508.92 K, 6400 kPa	0.07501
508.92 K, 6500 kPa	0.07534
508.92 K, 7000 kPa	0.07634
508.92 K, 7500 kPa	0.07702
508.92 K, 8000 kPa	0.07771
508.92 K, 8500 kPa	0.07771
508.92 K, 9000 kPa	0.07828
508.92 K, 9500 kPa	0.07915
508.92 K, 10000 kPa	0.07951
509.85 K, 2686 kPa	0.04642
509.85 K, 2700 kPa	0.04668
509.85 K, 2710 kPa	0.04655
509.85 K, 2720 kPa	0.04706
509.85 K, 2730 kPa	0.0472
509.85 K, 2740 kPa	0.04733
509.85 K, 2750 kPa	0.04759
509.85 K, 2760 kPa	0.04786
509.85 K, 2770 kPa	0.04813
509.85 K, 2780 kPa	0.04827
509.85 K, 2790 kPa	0.04841
509.85 K, 2800 kPa	0.04854
509.85 K, 2805 kPa	0.04868
509.85 K, 2810 kPa	0.04882
509.85 K, 2815 kPa	0.0491
509.85 K, 2820 kPa	0.04925
509.85 K, 2825 kPa	0.04939
509.85 K, 2830 kPa	0.04953
509.85 K, 2835 kPa	0.04968
509.85 K, 2840 kPa	0.04957
509.85 K, 2845 kPa	0.04972
509.85 K, 2850 kPa	0.04986
509.85 K, 2855 kPa	0.05001
509.85 K, 2860 kPa	0.05016
509.85 K, 2865 kPa	0.05031
509.85 K, 2870 kPa	0.05046
509.85 K, 2875 kPa	0.05061
509.85 K, 2880 kPa	0.05077
509.85 K, 2885 kPa	0.05123
509.85 K, 2890 kPa	0.05123
509.85 K, 2895 kPa	0.05139
509.85 K, 2900 kPa	0.05154
509.85 K, 2905 kPa	0.0517
509.85 K, 2910 kPa	0.05186
509.85 K, 2915 kPa	0.05218
509.85 K, 2920 kPa	0.05243
509.85 K, 2925 kPa	0.05259
509.85 K, 2930 kPa	0.05293
509.85 K, 2935 kPa	0.05309
509.85 K, 2940 kPa	0.05326
509.85 K, 2945 kPa	0.05344
509.85 K, 2950 kPa	0.05378
509.85 K, 2955 kPa	0.05395
509.85 K, 2960 kPa	0.05431
